For eight compounds, GI50 and TGI results are on record in PubChem BioAssay (NCI).

“And” between values parts separate entries of the source, which are not always exact repeats. Equal entries are not always repeated.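 Step 1: Grow cells in 96-well plates. Step 2: Expose to compound for 48 hours at 5 concentrations. Step 3: Interpolate endpoints linearly; if unreached, use highest concentration. The concentration for 50% growth inhibition is given as GI50. TGI denotes the concentration required for complete inhibition of growth.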

Among the test systems are RXF 393 renal; KM12 colon; T-47D breast; HCT-15 colon; PC-3 prostate; MCF7 breast; MDA-MB-231 breast; MALME-3M melanoma; HOP-62 NSCLC; SNB-19 CNS.
Common to all, as to assay: NCI-60 cell line screen, 48 h

For the compound `NS(=O)(=O)c1cccc(Nc2cc(-c3ccc(F)cc3)[nH]n2)c1`, the GI50 is 17.8 µM with RXF 393 renal; 8220 nM in the assay with KM12 colon; over 23300 nM in the assay with T-47D breast; 19300 nM in the assay with HCT-15 colon; over 23600 nM in the assay with PC-3 prostate; 20400 nM in the assay with MCF7 breast. In addition, the GI50 was over 25000 nM in the assay with MDA-MB-231 breast, over 25 µM with MALME-3M melanoma, over 25 µM in the assay with HOP-62 NSCLC and over 25 µM in the assay on SNB-19 CNS. Further, the TGI in the assay with RXF 393 renal, in the assay with KM12 colon, in the assay on T-47D breast, with HCT-15 colon, with PC-3 prostate and with MCF7 breast was over 25 µM in each case. In addition, the TGI in the assay with MDA-MB-231 breast, in the assay on MALME-3M melanoma, in the assay with HOP-62 NSCLC and with SNB-19 CNS was over 25 µM each time.

For `CN(N=O)c1ccc(/C=C/c2ccnc3ccccc23)cc1`, the TGI in the assay with RXF 393 renal, in the assay on KM12 colon, with T-47D breast, in the assay with HCT-15 colon, in the assay with PC-3 prostate and in the assay on MCF7 breast was over 100 µM throughout. Further, the TGI with MDA-MB-231 breast, in the assay with MALME-3M melanoma, in the assay on HOP-62 NSCLC and in the assay on SNB-19 CNS was over 100 µM throughout.

Take `CC1(C)C2CC(=O)C1(C)C(OCc1ccccc1)C2Br` (centres undefined): the GI50 is 20.6 µM and 82.7 µM in the assay on RXF 393 renal; 31400 nM and 63000 nM in the assay with KM12 colon; 18500 nM and > 100000 nM in the assay on MDA-MB-231 breast; 19.1 µM and 48.6 µM in the assay on MALME-3M melanoma; 16.3 µM and 54.3 µM with HOP-62 NSCLC; 47.2 µM and > 100 µM in the assay with SNB-19 CNS. The TGI in the assay on RXF 393 renal was 46.8 µM and > 100 µM; in the assay on KM12 colon, over 100 µM; in the assay with T-47D breast it was 77.9 µM and > 100 µM; in the assay with HCT-15 colon, 31.1 µM and > 100 µM; with PC-3 prostate it was 47.8 µM and > 100 µM; in the assay on MCF7 breast it was over 100 µM. Besides, the TGI was 42.9 µM and > 100 µM with MDA-MB-231 breast; 36.9 µM and > 100 µM with MALME-3M melanoma; 33.9 µM and > 100 µM with HOP-62 NSCLC; over 100 µM in the assay on SNB-19 CNS.

On to `COc1ccc2c(c1O)[C@@]13CCCC=C1[C@@H](C2)N(C)CC3`, for which the TGI in the assay with RXF 393 renal, with KM12 colon, with T-47D breast, in the assay on HCT-15 colon, with PC-3 prostate and in the assay on MCF7 breast was over 100 µM throughout. Further, the TGI with MDA-MB-231 breast is over 100 µM; with MALME-3M melanoma, 3.35 µM; in the assay with HOP-62 NSCLC, over 100 µM; in the assay on SNB-19 CNS, over 100 µM.

As to `COc1cc(/C=N\Nc2ccccc2)ccc1OC(=O)c1ccccc1`, the GI50 is 23.2 µM in the assay on RXF 393 renal; 778 nM in the assay on KM12 colon; 268 nM in the assay on T-47D breast; 306 nM with HCT-15 colon; 921 nM in the assay on PC-3 prostate; 1570 nM with MCF7 breast. In addition, the GI50 in the assay on MDA-MB-231 breast was 1910 nM; in the assay with MALME-3M melanoma, 7.55 µM; in the assay with HOP-62 NSCLC, 8.38 µM; in the assay with SNB-19 CNS, 19.8 µM. For the same compound, the TGI is 74.6 µM with RXF 393 renal; over 68.8 µM in the assay on KM12 colon; over 85.9 µM with T-47D breast; 17.6 µM in the assay on HCT-15 colon; 22.7 µM with PC-3 prostate; 23.7 µM with MCF7 breast. For the same compound, the TGI is 32.2 µM in the assay with MDA-MB-231 breast, over 100 µM with MALME-3M melanoma, over 64.7 µM with HOP-62 NSCLC and over 100 µM in the assay with SNB-19 CNS.

In the case of `CCCCCn1sc(=O)n(Cc2ccc(CNC(=O)C(C)c3ccc(CC(C)C)cc3)cc2)c1=O` (centres undefined), the GI50 in the assay with RXF 393 renal was 0.727 µM; in the assay with KM12 colon, 1590 nM; in the assay on T-47D breast, 1600 nM; in the assay on HCT-15 colon, 424 nM; in the assay on PC-3 prostate, 876 nM; with MCF7 breast it was 560 nM. The GI50 with MDA-MB-231 breast is 1180 nM; in the assay on MALME-3M melanoma, 1.43 µM; in the assay on HOP-62 NSCLC it was 1.41 µM; with SNB-19 CNS, 1.55 µM. The TGI in the assay with RXF 393 renal is 1.94 µM; with KM12 colon, 3.3 µM; in the assay with T-47D breast, 4.05 µM; in the assay with HCT-15 colon, 1.62 µM; in the assay on PC-3 prostate it was 2.47 µM; in the assay with MCF7 breast, 2.26 µM. Besides, the TGI in the assay with MDA-MB-231 breast is 2.46 µM; with MALME-3M melanoma, 2.8 µM; with HOP-62 NSCLC, 3.35 µM; in the assay on SNB-19 CNS it was 2.91 µM.

For the compound `COc1ccc(/C(=C(\c2ccccc2)[N+](=O)[O-])c2ccc(OCCN3CCCC3)cc2)cc1`, the GI50 in the assay with RXF 393 renal was 1.65 µM; with KM12 colon, 2160 nM; in the assay on T-47D breast, 1060 nM; with HCT-15 colon, 1490 nM; in the assay with PC-3 prostate it was 4530 nM; in the assay on MCF7 breast, 194 nM. Further, the GI50 in the assay with MDA-MB-231 breast was 2760 nM; in the assay with MALME-3M melanoma, 1.57 µM; in the assay on HOP-62 NSCLC it was 1.89 µM; with SNB-19 CNS it was 5.61 µM. The TGI came to 3.76 µM with RXF 393 renal; 12.4 µM in the assay on KM12 colon; 15.2 µM in the assay on T-47D breast; 4.19 µM with HCT-15 colon; 16.6 µM with PC-3 prostate; 3.63 µM in the assay on MCF7 breast. For the same compound, the TGI is 6.98 µM in the assay on MDA-MB-231 breast, 3.43 µM in the assay on MALME-3M melanoma, 4.94 µM in the assay with HOP-62 NSCLC and 18.6 µM in the assay on SNB-19 CNS.

As for `CC[C@H](C)[C@H](NC(=O)CN(C)C)C(=O)N(C)[C@H](C[C@@H](OC(C)=O)c1nc(C(=O)NC23C4C5C2C2C3C4C52C(=O)OC)cs1)C(C)C` (some centres undefined), the GI50 is 0.387 µM with RXF 393 renal; 740 nM in the assay on KM12 colon; over 33200 nM in the assay on T-47D breast; 1040 nM in the assay on HCT-15 colon; 768 nM with PC-3 prostate; 134 nM with MCF7 breast. In addition, the GI50 was 352 nM in the assay with MDA-MB-231 breast and 1.31 µM with SNB-19 CNS. Further, the TGI in the assay with RXF 393 renal, in the assay with KM12 colon, with T-47D breast, in the assay with HCT-15 colon, in the assay on PC-3 prostate and in the assay with MCF7 breast was over 33.2 µM each time. The TGI is 4.62 µM with MDA-MB-231 breast, over 33.2 µM in the assay on MALME-3M melanoma, over 33.2 µM with HOP-62 NSCLC and over 33.2 µM with SNB-19 CNS.
